Data reported in US9340590B2 (priority 2011, dated 2016).
Read-outs that look alike come from different tables or passages of the source. Positions of bridges follow the written chain, without caps; N, C: chain ends. Residues, ends and D or L forms follow the SMILES beside them.

What was measured:
Assay in all cases: cell-based
[1] = molecular target: hNav1.3 (Homo sapiens, UniProt Q9NY46)
[2] = molecular target: hNav1.7 (Homo sapiens, UniProt Q15858); type: cell-based
[3] = molecular target: hNav1.5 (Homo sapiens, UniProt Q14524)
[4] = IonWorks Quattro, clamped to −110 mV, depolarized to −10 mV, 5 min after compound, n=2, read-out: IWQ Use Nav1.3
[5] = IonWorks Quattro, clamped to −110 mV, depolarized to −10 mV, 5 min after compound, n=2, read-out: IWQ Use Nav1.7
[6] = IonWorks Quattro, clamped to −110 mV, depolarized to −10 mV, 5 min after compound, n=2, read-out: IWQ Use Nav1.5

Chain of hNav1.5 (Q14524 whole entry, looked up): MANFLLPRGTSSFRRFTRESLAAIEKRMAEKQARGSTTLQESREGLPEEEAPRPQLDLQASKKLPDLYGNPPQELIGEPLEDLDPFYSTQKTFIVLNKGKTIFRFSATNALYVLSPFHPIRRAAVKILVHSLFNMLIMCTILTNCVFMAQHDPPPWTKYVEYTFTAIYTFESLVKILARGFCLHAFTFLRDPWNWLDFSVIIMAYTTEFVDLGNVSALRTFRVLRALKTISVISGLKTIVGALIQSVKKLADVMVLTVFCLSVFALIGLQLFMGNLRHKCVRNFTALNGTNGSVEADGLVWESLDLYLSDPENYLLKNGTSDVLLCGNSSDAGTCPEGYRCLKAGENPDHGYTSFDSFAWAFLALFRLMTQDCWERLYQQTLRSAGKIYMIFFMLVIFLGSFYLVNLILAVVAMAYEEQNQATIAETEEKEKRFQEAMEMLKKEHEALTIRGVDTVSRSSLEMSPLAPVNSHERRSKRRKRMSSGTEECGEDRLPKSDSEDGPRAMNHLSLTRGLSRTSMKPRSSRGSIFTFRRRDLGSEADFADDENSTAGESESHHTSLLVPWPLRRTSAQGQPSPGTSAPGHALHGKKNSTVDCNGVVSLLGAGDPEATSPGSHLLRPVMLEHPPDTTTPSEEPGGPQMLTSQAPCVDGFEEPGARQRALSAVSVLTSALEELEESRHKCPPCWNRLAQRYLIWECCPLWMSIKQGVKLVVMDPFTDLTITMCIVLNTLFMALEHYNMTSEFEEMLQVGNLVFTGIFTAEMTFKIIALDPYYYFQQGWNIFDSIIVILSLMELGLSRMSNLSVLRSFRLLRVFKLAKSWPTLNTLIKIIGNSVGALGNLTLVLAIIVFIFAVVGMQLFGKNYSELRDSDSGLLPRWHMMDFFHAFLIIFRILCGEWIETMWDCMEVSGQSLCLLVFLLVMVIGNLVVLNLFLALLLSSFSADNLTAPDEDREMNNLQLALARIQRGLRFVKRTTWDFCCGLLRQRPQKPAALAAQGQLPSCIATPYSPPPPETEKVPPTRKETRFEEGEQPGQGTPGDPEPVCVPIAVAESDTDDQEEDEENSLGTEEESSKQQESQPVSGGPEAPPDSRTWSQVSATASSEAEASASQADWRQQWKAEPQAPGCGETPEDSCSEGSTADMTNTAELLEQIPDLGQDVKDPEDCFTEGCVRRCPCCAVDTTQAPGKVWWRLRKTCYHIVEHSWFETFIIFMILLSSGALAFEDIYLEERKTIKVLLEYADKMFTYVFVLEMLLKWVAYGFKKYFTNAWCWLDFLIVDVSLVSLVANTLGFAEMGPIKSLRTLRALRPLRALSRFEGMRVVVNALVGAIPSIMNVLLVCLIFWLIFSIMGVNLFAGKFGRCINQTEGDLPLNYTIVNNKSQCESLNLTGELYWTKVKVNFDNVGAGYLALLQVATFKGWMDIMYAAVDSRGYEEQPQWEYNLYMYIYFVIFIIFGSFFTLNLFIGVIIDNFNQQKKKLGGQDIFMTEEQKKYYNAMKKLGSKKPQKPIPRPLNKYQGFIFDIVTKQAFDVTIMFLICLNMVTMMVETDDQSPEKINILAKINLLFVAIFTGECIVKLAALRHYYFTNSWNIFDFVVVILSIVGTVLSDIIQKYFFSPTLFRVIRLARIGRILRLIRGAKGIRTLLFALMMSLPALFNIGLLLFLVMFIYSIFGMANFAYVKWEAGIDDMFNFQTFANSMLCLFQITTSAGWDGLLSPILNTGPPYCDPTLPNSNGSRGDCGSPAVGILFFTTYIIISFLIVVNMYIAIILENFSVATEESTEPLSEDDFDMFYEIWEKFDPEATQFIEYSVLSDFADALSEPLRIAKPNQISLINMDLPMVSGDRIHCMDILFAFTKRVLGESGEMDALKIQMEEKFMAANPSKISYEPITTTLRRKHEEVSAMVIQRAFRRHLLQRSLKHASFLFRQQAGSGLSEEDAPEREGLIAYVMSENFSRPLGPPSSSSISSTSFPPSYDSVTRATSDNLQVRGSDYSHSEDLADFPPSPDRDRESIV
Chain of hNav1.7 (Q15858 whole entry, looked up): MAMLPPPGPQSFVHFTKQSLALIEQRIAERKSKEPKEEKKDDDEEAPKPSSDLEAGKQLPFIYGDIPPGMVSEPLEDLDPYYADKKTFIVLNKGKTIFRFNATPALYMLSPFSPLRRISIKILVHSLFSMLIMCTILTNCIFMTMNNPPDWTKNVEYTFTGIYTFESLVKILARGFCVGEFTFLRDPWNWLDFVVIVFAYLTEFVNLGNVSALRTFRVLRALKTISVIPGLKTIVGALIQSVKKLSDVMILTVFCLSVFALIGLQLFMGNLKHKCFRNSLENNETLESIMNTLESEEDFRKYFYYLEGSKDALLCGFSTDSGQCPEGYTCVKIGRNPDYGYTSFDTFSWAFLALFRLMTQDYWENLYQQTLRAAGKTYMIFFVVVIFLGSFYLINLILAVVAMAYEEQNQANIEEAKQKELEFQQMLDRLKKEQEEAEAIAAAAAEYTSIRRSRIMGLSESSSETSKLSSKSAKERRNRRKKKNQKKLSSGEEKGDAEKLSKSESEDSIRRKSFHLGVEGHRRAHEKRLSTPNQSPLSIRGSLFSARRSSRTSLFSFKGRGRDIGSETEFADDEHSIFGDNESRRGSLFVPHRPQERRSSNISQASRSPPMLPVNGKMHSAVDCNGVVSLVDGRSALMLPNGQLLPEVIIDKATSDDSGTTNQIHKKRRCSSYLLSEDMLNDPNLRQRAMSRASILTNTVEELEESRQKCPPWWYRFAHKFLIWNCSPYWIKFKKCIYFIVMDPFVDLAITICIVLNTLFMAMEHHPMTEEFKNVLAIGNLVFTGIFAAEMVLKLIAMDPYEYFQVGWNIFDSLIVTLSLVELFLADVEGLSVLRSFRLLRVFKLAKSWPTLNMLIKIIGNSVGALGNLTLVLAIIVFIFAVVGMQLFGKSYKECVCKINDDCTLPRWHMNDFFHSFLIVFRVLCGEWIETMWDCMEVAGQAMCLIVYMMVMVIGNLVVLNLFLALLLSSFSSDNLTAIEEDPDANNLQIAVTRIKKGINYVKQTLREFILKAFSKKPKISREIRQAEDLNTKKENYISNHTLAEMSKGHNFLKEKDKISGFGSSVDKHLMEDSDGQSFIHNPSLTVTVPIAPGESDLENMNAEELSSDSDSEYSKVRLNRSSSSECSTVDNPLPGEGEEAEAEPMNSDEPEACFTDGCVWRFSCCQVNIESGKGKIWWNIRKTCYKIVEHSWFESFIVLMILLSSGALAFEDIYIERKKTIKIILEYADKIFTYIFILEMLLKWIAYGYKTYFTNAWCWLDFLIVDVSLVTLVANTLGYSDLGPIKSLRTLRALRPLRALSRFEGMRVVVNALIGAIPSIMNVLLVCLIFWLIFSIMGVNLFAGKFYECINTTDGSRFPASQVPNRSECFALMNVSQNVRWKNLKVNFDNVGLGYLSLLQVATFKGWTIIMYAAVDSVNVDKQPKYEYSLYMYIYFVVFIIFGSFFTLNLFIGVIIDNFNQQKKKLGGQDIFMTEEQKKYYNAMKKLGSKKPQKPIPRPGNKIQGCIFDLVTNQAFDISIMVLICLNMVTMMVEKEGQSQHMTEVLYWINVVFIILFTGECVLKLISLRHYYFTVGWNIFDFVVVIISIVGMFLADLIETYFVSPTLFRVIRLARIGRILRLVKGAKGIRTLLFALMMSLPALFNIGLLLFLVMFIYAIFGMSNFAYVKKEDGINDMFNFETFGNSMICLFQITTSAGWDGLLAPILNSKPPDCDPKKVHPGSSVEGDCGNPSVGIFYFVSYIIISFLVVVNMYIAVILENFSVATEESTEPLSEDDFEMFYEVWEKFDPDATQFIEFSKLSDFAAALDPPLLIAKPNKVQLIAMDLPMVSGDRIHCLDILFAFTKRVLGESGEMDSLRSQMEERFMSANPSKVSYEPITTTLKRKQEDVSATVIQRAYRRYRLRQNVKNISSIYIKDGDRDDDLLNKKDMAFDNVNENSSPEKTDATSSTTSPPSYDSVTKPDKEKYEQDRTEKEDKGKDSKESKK

| SMILES | IC50 [1, 4] [nM] | IC50 [2, 5] [nM] | IC50 [3, 6] [µM] | IC50 [1] [nM] | IC50 [2] [nM] | IC50 ([3]; IWQ Use Nav1.5 (μM)) [µM] |
| --- | --- | --- | --- | --- | --- | --- |
| CC[C@H](C)[C@H](N)C(=O)N[C@H]1CSSC[C@@H]2NC(=O)[C@@H]3CSSC[C@@H](C(=O)N[C@@H](CCCCN)C(=O)N[C@@H](Cc4ccc(O)cc4)C(=O)N[C@H](C(=O)N[C@@H](Cc4ccccc4)C(N)=O)C(C)C)NC(=O)[C@H](Cc4c[nH]c5ccccc45)NC(=O)[C@H](CCCCN)NC(=O)[C@H](Cc4c[nH]cn4)NC(=O)[C@H]([C@@H](C)O)NC(=O)[C@H](CCCNC(=N)N)NC(=O)[C@H](CO)NC(=O)[C@H](CSSC[C@H](NC(=O)[C@H](CCCCN)NC(=O)[C@H](CCCNC(=N)N)NC(=O)[C@H](CCSC)NC(=O)[C@H](Cc4ccccc4)NC(=O)CNC(=O)[C@H](CC(C)C)NC1=O)C(=O)N[C@@H]([C@@H](C)CC)C(=O)N1CCC[C@H]1C(=O)N[C@@H](CC(=O)O)C(=O)N[C@@H](CC(N)=O)C(=O)N[C@@H](CC(=O)O)C(=O)N[C@@H](CCCCN)C(=O)N3)NC(=O)[C@H](C(C)C)NC(=O)[C@H](CC(C)C)NC(=O)[C@H](CC(N)=O)NC(=O)[C@@H]1CCCN1C(=O)[C@H](CCCNC(=N)N)NC2=O [SEQ ID NO: 189] (H-ICLGFMRKCIPDNDKCCRPNLVCSRTHKWCKYVF-NH2; disulfide 2-17, 9-23, 16-30) | 70 | 100 | 8.15 |  |  |  |
| CC[C@H](C)[C@@H]1NC(=O)[C@@H]2CSSC[C@@H]3NC(=O)[C@H](C(C)C)NC(=O)[C@H](CC(C)C)NC(=O)[C@H](CC(N)=O)NC(=O)[C@@H]4CCCN4C(=O)[C@H](CCCNC(=N)N)NC(=O)[C@H](CSSC[C@H](NC(=O)[C@@H]4CCCN4)C(=O)N[C@@H](CC(C)C)C(=O)NCC(=O)N[C@@H](Cc4ccccc4)C(=O)N[C@@H](CCSC)C(=O)N[C@@H](CCCNC(=N)N)C(=O)N[C@@H](CCCCN)C(=O)N2)NC(=O)[C@H](CSSC[C@@H](C(=O)N[C@@H](CCCCN)C(=O)N[C@@H](Cc2ccc(O)cc2)C(=O)N[C@H](C(=O)N[C@@H](Cc2ccccc2)C(N)=O)C(C)C)NC(=O)[C@H](Cc2c[nH]c4ccccc24)NC(=O)[C@H](CCCCN)NC(=O)[C@H](Cc2c[nH]cn2)NC(=O)[C@H]([C@@H](C)O)NC(=O)[C@H](CCCNC(=N)N)NC(=O)[C@H](CO)NC3=O)NC(=O)[C@H](CCCCN)NC(=O)[C@H](CC(=O)O)NC(=O)[C@H](CC(N)=O)NC(=O)[C@H](CC(=O)O)NC(=O)[C@@H]2CCCN2C1=O [SEQ ID NO: 190] (H-PCLGFMRKCIPDNDKCCRPNLVCSRTHKWCKYVF-NH2; disulfide 2-17, 9-23, 16-30) | 40 | 90 | 9.73 |  |  |  |
| CC[C@H](C)[C@@H]1NC(=O)[C@@H]2CSSC[C@@H]3NC(=O)[C@H](C(C)C)NC(=O)[C@H](CC(C)C)NC(=O)[C@H](CC(N)=O)NC(=O)[C@@H]4CCCN4C(=O)[C@H](CCCNC(=N)N)NC(=O)[C@H](CSSC[C@H](NC(=O)[C@@H](N)CO)C(=O)N[C@@H](CC(C)C)C(=O)NCC(=O)N[C@@H](Cc4ccccc4)C(=O)N[C@@H](CCSC)C(=O)N[C@@H](CCCNC(=N)N)C(=O)N[C@@H](CCCCN)C(=O)N2)NC(=O)[C@H](CSSC[C@@H](C(=O)N[C@@H](CCCCN)C(=O)N[C@@H](Cc2ccc(O)cc2)C(=O)N[C@H](C(=O)N[C@@H](Cc2ccccc2)C(N)=O)C(C)C)NC(=O)[C@H](Cc2c[nH]c4ccccc24)NC(=O)[C@H](CCCCN)NC(=O)[C@H](Cc2c[nH]cn2)NC(=O)[C@H]([C@@H](C)O)NC(=O)[C@H](CCCNC(=N)N)NC(=O)[C@H](CO)NC3=O)NC(=O)[C@H](CCCCN)NC(=O)[C@H](CC(=O)O)NC(=O)[C@H](CC(N)=O)NC(=O)[C@H](CC(=O)O)NC(=O)[C@@H]2CCCN2C1=O [SEQ ID NO: 191] (H-SCLGFMRKCIPDNDKCCRPNLVCSRTHKWCKYVF-NH2; disulfide 2-17, 9-23, 16-30) | 50 | 70 | 9.4 |  |  |  |
| CC[C@H](C)[C@@H]1NC(=O)[C@@H]2CSSC[C@@H]3NC(=O)[C@H](C(C)C)NC(=O)[C@H](CC(C)C)NC(=O)[C@H](CC(N)=O)NC(=O)[C@@H]4CCCN4C(=O)[C@H](CCCNC(=N)N)NC(=O)[C@H](CSSC[C@H](NC(=O)[C@@H](N)[C@@H](C)O)C(=O)N[C@@H](CC(C)C)C(=O)NCC(=O)N[C@@H](Cc4ccccc4)C(=O)N[C@@H](CCSC)C(=O)N[C@@H](CCCNC(=N)N)C(=O)N[C@@H](CCCCN)C(=O)N2)NC(=O)[C@H](CSSC[C@@H](C(=O)N[C@@H](CCCCN)C(=O)N[C@@H](Cc2ccc(O)cc2)C(=O)N[C@H](C(=O)N[C@@H](Cc2ccccc2)C(N)=O)C(C)C)NC(=O)[C@H](Cc2c[nH]c4ccccc24)NC(=O)[C@H](CCCCN)NC(=O)[C@H](Cc2c[nH]cn2)NC(=O)[C@H]([C@@H](C)O)NC(=O)[C@H](CCCNC(=N)N)NC(=O)[C@H](CO)NC3=O)NC(=O)[C@H](CCCCN)NC(=O)[C@H](CC(=O)O)NC(=O)[C@H](CC(N)=O)NC(=O)[C@H](CC(=O)O)NC(=O)[C@@H]2CCCN2C1=O [SEQ ID NO: 192] (H-TCLGFMRKCIPDNDKCCRPNLVCSRTHKWCKYVF-NH2; disulfide 2-17, 9-23, 16-30) | 70 | 110 | 9.21 |  |  |  |
| CC[C@H](C)[C@@H]1NC(=O)[C@@H]2CSSC[C@@H]3NC(=O)[C@H](C(C)C)NC(=O)[C@H](CC(C)C)NC(=O)[C@H](CC(N)=O)NC(=O)[C@@H]4CCCN4C(=O)[C@H](CCCNC(=N)N)NC(=O)[C@H](CSSC[C@H](NC(=O)[C@@H](N)CC(=O)O)C(=O)N[C@@H](CC(C)C)C(=O)NCC(=O)N[C@@H](C)C(=O)N[C@@H](Cc4ccccc4)C(=O)N[C@@H](CCCNC(=N)N)C(=O)N[C@@H](CCCCN)C(=O)N2)NC(=O)[C@H](CSSC[C@@H](C(=O)N[C@@H](CCCCN)C(=O)N[C@@H](Cc2ccc(O)cc2)C(=O)N[C@H](C(=O)N[C@@H](Cc2ccccc2)C(N)=O)C(C)C)NC(=O)[C@H](Cc2c[nH]c4ccccc24)NC(=O)[C@H](CCCNC(=N)N)NC(=O)[C@H](Cc2cnc[nH]2)NC(=O)[C@H](CC(C)C)NC(=O)[C@H](CCCNC(=N)N)NC(=O)[C@H](CO)NC3=O)NC(=O)[C@H](CCCCN)NC(=O)[C@H](CC(=O)O)NC(=O)[C@H](CC(N)=O)NC(=O)[C@H](CC(=O)O)NC(=O)[C@@H]2CCCN2C1=O [SEQ ID NO: 262, [Ala5,Phe6,Leu26,Arg28]GpTx-1] (H-DCLGAFRKCIPDNDKCCRPNLVCSRLHRWCKYVF-NH2; disulfide 2-17, 9-23, 16-30) |  |  |  | 40 | 50 | 5 |
| CC[C@H](C)[C@@H]1NC(=O)[C@@H]2CSSC[C@@H]3NC(=O)[C@H](C(C)C)NC(=O)[C@H](CC(C)C)NC(=O)[C@H](CC(N)=O)NC(=O)[C@@H]4CCCN4C(=O)[C@H](CCCNC(=N)N)NC(=O)[C@H](CSSC[C@H](NC(=O)[C@@H](N)CC(=O)O)C(=O)N[C@@H](CC(C)C)C(=O)NCC(=O)N[C@@H](Cc4cn(C)c5ccccc45)C(=O)N[C@@H](CCSC)C(=O)N[C@@H](CCCNC(=N)N)C(=O)N[C@@H](CCCCN)C(=O)N2)NC(=O)[C@H](CSSC[C@@H](C(=O)N[C@@H](CCCCN)C(=O)N[C@@H](Cc2ccc(O)cc2)C(=O)N[C@H](C(=O)N[C@@H](Cc2ccccc2)C(N)=O)C(C)C)NC(=O)[C@H](Cc2c[nH]c4ccccc24)NC(=O)[C@H](CCCCN)NC(=O)[C@H](Cc2c[nH]cn2)NC(=O)[C@H]([C@@H](C)O)NC(=O)[C@H](CCCNC(=N)N)NC(=O)[C@H](CO)NC3=O)NC(=O)[C@H](CCCCN)NC(=O)[C@H](CC(=O)O)NC(=O)[C@H](CC(N)=O)NC(=O)[C@H](CC(=O)O)NC(=O)[C@@H]2CCCN2C1=O [SEQ ID NO: 264] | 90 | 90 | 8.17 |  |  |  |
| CC[C@H](C)[C@@H]1NC(=O)[C@@H]2CSSC[C@@H]3NC(=O)[C@H](C(C)C)NC(=O)[C@H](CC(C)C)NC(=O)[C@H](CC(N)=O)NC(=O)[C@@H]4CCCN4C(=O)[C@H](CCCNC(=N)N)NC(=O)[C@H](CSSC[C@H](NC(=O)[C@@H](N)CC(=O)O)C(=O)N[C@@H](CC(C)C)C(=O)NCC(=O)NCC(=O)N[C@@H](CCSC)C(=O)N[C@@H](CCCNC(=N)N)C(=O)N[C@@H](CCCCN)C(=O)N2)NC(=O)[C@H](CSSC[C@@H](C(=O)N[C@@H](CCCCN)C(=O)N[C@@H](Cc2ccc(O)cc2)C(=O)N[C@H](C(=O)N[C@@H](Cc2ccccc2)C(N)=O)C(C)C)NC(=O)[C@H](Cc2c[nH]c4ccccc24)NC(=O)[C@H](CCCCN)NC(=O)[C@H](Cc2cnc[nH]2)NC(=O)[C@H]([C@@H](C)O)NC(=O)[C@H](CCCNC(=N)N)NC(=O)[C@H](CO)NC3=O)NC(=O)[C@H](CCCCN)NC(=O)[C@H](CC(=O)O)NC(=O)[C@H](CC(N)=O)NC(=O)[C@H](CC(=O)O)NC(=O)[C@@H]2CCCN2C1=O [SEQ ID NO: 265] (H-DCLGGMRKCIPDNDKCCRPNLVCSRTHKWCKYVF-NH2; disulfide 2-17, 9-23, 16-30) | 1240 | 750 | 7.47 |  |  |  |
| CC[C@H](C)[C@@H]1NC(=O)[C@@H]2CSSC[C@@H]3NC(=O)[C@H](C(C)C)NC(=O)[C@H](CC(C)C)NC(=O)[C@H](CC(N)=O)NC(=O)[C@@H]4CCCN4C(=O)[C@H](CCCNC(=N)N)NC(=O)[C@H](CSSC[C@H](NC(=O)[C@@H](N)CC(=O)O)C(=O)N[C@@H](CC(C)C)C(=O)NCC(=O)N[C@@H](Cc4c[nH]cn4)C(=O)N[C@@H](CCSC)C(=O)N[C@@H](CCCNC(=N)N)C(=O)N[C@@H](CCCCN)C(=O)N2)NC(=O)[C@H](CSSC[C@@H](C(=O)N[C@@H](CCCCN)C(=O)N[C@@H](Cc2ccc(O)cc2)C(=O)N[C@H](C(=O)N[C@@H](Cc2ccccc2)C(N)=O)C(C)C)NC(=O)[C@H](Cc2c[nH]c4ccccc24)NC(=O)[C@H](CCCCN)NC(=O)[C@H](Cc2c[nH]cn2)NC(=O)[C@H]([C@@H](C)O)NC(=O)[C@H](CCCNC(=N)N)NC(=O)[C@H](CO)NC3=O)NC(=O)[C@H](CCCCN)NC(=O)[C@H](CC(=O)O)NC(=O)[C@H](CC(N)=O)NC(=O)[C@H](CC(=O)O)NC(=O)[C@@H]2CCCN2C1=O [SEQ ID NO: 266] (H-DCLGHMRKCIPDNDKCCRPNLVCSRTHKWCKYVF-NH2; disulfide 2-17, 9-23, 16-30) | 8370 | 4740 | 6.62 |  |  |  |
